For this experiment, the system named is H460 non-small cell lung cancer human tumor cell line. The experiment in a line: In vitro human tumor cell line cytotoxicity (proliferation) assay on H460, CTG, with or without AST-3021. The note with it: for IC50: Homo sapiens. The class given is cell-based. The protocol: In vitro human tumor cell line cytotoxicity assay was used.
In vitro proliferation data on the H460 non-small cell lung cancer human tumor cell line (cell line which highly expresses AKR1C3) is reported below in the compound table.
IC50 values were obtained with the following steps:
Specifically, exponentially growing cells were seeded at a density of 2×10^3 cells/100 μL/well in a 96-well plate and incubated at 37° C. in 5% CO2, 95% air and 100% relative humidity for 24 hours. The test compound was administered alone: 24 hours after cell plating, the compound acted alone, 99 μL of growth medium per well was added, and 1 μL of the compound prepared at 200× was added, and the plate was shaken gently to ensure even mixing, then placed into an incubator of 37° C., 5% CO2. After further cultivation for 72 hours, the number of live cells was detected using CTG. The CTG detection method was as follows: the cell plate to be tested was placed at room temperature to equilibrate for 30 minutes, and 100 μL of medium per well was discarded. 25 μL of CTG reagent (CellTiter-Glo® kit) per well was added, and the plate was placed in a high-speed shaker to oscillate for 2 minutes, and placed at room temperature in the dark for 30 minutes. The chemiluminescence signal value was read using a multimode microplate reader, with a read time of 1000 ms.
Similarly, in order to further verify that the compounds were activated by human AKR1C3 (aldosterone reductase family 1 member C3), the effect of some of the compounds on the proliferation of H460 cancer cells was tested with pretreatment with a specific AKR1C3 enzyme inhibitor AST-3021 (3 μM). The detailed experimental procedure was as follows: 24 hours after cell plating, 98 μL of growth medium per well was added, and 1 μL of 200×compound AST-3021 was added to each well, and the plate was shaken gently to ensure even mixing, and then placed into an incubator; after 2 hours, 1 μL of the test compound prepared at 200× was added, and the plate was shaken gently to ensure even mixing and then laced into an incubator of 37° C., 5% CO2. The inhibitor used was compound 36, i.e.
in Flanagan et al., Bioorganic and Medicinal Chemistry (2014), page 962-977, and is referred to as AST-3021 in this invention. The values measured in this case are values corresponding to +AST-3021 IC50 (nM) in Table 1.
The value corresponding to +AST-3021 IC50 (nM) divided by the value corresponding to IC50 (nM) is the specific activation ratio. The relative magnitude of the specific activation ratio can be used to evaluate whether this compound is a cytotoxic compound activated by human AKR1C3 (aldosterone reductase family 1 member C3): when the specific activation ratio is less than 1, it is considered that the compound is not activated by human AKR1C3 (aldosterone reductase family 1 member C3); when the specific activation ratio is greater than 1, it is considered that the compound is activated by human AKR1C3 (aldosterone reductase family 1 member C3), and the higher the value, the higher the activation degree and the selectivity of AKR1C3.

The mark [1] stands for this setting: NCI-H460, compound alone, 72 hours, read-out: IC50.
The mark [2] stands for this setting: NCI-H460, pretreatment with AKR1C3 inhibitor AST-3021 (3 μM), read-out: +AST-3021 IC50.

Structures are written as SMILES. Read-outs that look alike come from different tables or passages of the source.

The IC50 is the midpoint of a concentration-inhibition curve.

Take `CCN(CC)P(=O)(OCc1ccc([N+](=O)[O-])c(Oc2ccc(-c3ccc(F)cc3)c(F)c2)c1)OCC1OC(n2ccc(N)nc2=O)C(F)(F)C1O` (stereo not drawn) [Compound D2, reference compound]: the “specific activation ratio (+AST-3021 IC50/IC50)” value (shortened to “specific activation ratio”) came to 45.1. Under setting [1], the IC50 came out at 96.9 nM. For the same molecule, the IC50 under setting [2] turned out to be 4370 nM.

For the molecule `Nc1ccn(C2OC(COP(=O)(OCc3ccc([N+](=O)[O-])c(Oc4ccc(-c5ccc(F)cc5)c(F)c4)c3)Oc3ccccc3)C(O)C2(F)F)c(=O)n1` (stereo not drawn) [Compound D6, reference compound], the “specific activation ratio” value is reported as 0.54. Moreover, the half-maximal inhibitory concentration (IC50) under setting [1] stood at 20.6 nM. Under setting [2], the IC50 amounted to 11.2 nM.

In the case of `Nc1ccn(C2OC(COP(=O)(OCc3ccc([N+](=O)[O-])c(Oc4ccc(C(F)(F)F)cc4)c3)Oc3ccccc3)C(O)C2(F)F)c(=O)n1` (stereo not drawn) [Compound D7, reference compound], the “specific activation ratio” value is on record as 0.77. Moreover, the IC50 under setting [1] was determined as 50.3 nM. Moreover, the IC50 under setting [2] turned out to be 38.9 nM.

On to `CC(OP(=O)(OCC1OC(n2ccc(N)nc2=O)C(F)(F)C1O)N(C)C)c1ccc([N+](=O)[O-])c(Oc2ccc(-c3ccc(F)cc3)c(F)c2)c1` (stereo not drawn) [Compound D9, reference compound], for which the “specific activation ratio” value turned out to be 56.5. The IC50 under setting [1] came out at 67.8 nM. Moreover, under setting [2], the IC50 came out at 3830 nM.

For the molecule `CNP(=O)(OCc1ccc([N+](=O)[O-])c(Oc2ccc(-c3ccc(F)cc3)c(F)c2)c1)OCC1OC(n2ccc(N)nc2=O)C(F)(F)C1O` (stereo not drawn) [Compound H1], the “specific activation ratio” value amounted to 24.2. For the same molecule, the IC50 under setting [1] was 29.4 nM. Further, the IC50 under setting [2] came out at 712 nM.

With `CCNP(=O)(OCc1ccc([N+](=O)[O-])c(Oc2ccc(-c3ccc(F)cc3)c(F)c2)c1)OCC1OC(n2ccc(N)nc2=O)C(F)(F)C1O` (stereo not drawn) [Compound H2], the “specific activation ratio” value amounted to 47.8. Further, the IC50 under setting [1] stood at 19.9 nM. For the same molecule, under setting [2], the IC50 is 951 nM.

For the molecule `Nc1ccn(C2OC(COP(=O)(NCCBr)OCc3ccc([N+](=O)[O-])c(Oc4ccc(-c5ccc(F)cc5)c(F)c4)c3)C(O)C2(F)F)c(=O)n1` (stereo not drawn) [Compound H4], the “specific activation ratio” value worked out at 6.2. In addition, the IC50 under setting [1] is 5.15 nM. Moreover, the IC50 under setting [2] is 31.7 nM.

Consider `CNP(=O)(OCc1ccc([N+](=O)[O-])c(Oc2ccc(C(F)(F)F)cc2)c1)OCC1OC(n2ccc(N)nc2=O)C(F)(F)C1O` (stereo not drawn) [Compound H5], for which the “specific activation ratio” value was 4.2. Under setting [1], the IC50 stood at 117 nM. In addition, the half-inhibitory concentration (IC50) under setting [2] was 499 nM.

`CCNP(=O)(OCc1ccc([N+](=O)[O-])c(Oc2ccc(C(F)(F)F)cc2)c1)OCC1OC(C2N=CC(N)=NC2=O)C(F)(F)C1O` (stereo not drawn) [Compound H6]: the “specific activation ratio” value amounted to 12.9. Further, under setting [1], the IC50 amounted to 178 nM. Besides, under setting [2], the IC50 turned out to be 2300 nM.

For the molecule `CC(C)CNP(=O)(OCc1ccc([N+](=O)[O-])c(Oc2ccc(-c3ccc(F)cc3)c(F)c2)c1)OCC1OC(C2N=CC(N)=NC2=O)C(F)(F)C1O` (stereo not drawn) [Compound H7], the “specific activation ratio” value stood at 61.3. Also, the IC50 under setting [1] came out at 26.8 nM. In addition, the IC50 under setting [2] turned out to be 1640 nM.

As to `NC1=NC(=O)C(C2OC(COP(=O)(NCc3ccccc3)OCc3ccc([N+](=O)[O-])c(Oc4ccc(-c5ccc(F)cc5)c(F)c4)c3)C(O)C2(F)F)N=C1` (stereo not drawn) [Compound H8], the “specific activation ratio” value amounted to 44.8. Also, the 50% inhibitory concentration (IC50) under setting [1] was determined as 67.5 nM. Further, under setting [2], the IC50 came to 3020 nM.

In the case of `NC1=NC(=O)C(C2OC(COP(=O)(NCc3ccccc3)OCc3ccc([N+](=O)[O-])c(Oc4ccc(C(F)(F)F)cc4)c3)C(O)C2(F)F)N=C1` (stereo not drawn) [Compound H9], the “specific activation ratio” value was determined as 23.2. The half-maximal inhibitory concentration (IC50) under setting [1] is 78.2 nM. In addition, under setting [2], the IC50 was found to be 1810 nM.

Regarding `CC(C)CNP(=O)(OCc1ccc([N+](=O)[O-])c(Oc2ccc(C(F)(F)F)cc2)c1)OCC1OC(C2N=CC(N)=NC2=O)C(F)(F)C1O` (stereo not drawn) [Compound H10], the “specific activation ratio” value came to 27.7. Further, the concentration for half-maximal inhibition (IC50) under setting [1] stood at 105 nM. Further, the IC50 under setting [2] was found to be 2900 nM.

These data come from patent US20240368209A1, “GEMCITABINE ANTICANCER DERIVATIVE AND ANTICANCER PHARMACEUTICAL USE” (ASCENTAWITS PHARMACEUTICALS, LTD., priority 2021, published 2024).
